Measured values reported in PMC10086185, “Synthesis, radiolabeling, and evaluation of a (4-quinolinoyl)glycyl-2-cyanopyrrolidine analogue for fibroblast activation protein (FAP) PET imaging” (Frontiers in Bioengineering and Biotechnology, 2023).
Where “and” joins values, the source holds several entries; their conditions need not be identical. Equal values may be shown once.

Tests used:
[1] = tested on: A549-FAPI cells (human FAP-expressing A549); test: Cellular uptake of [^18F]3 in A549-FAPI cells; format: cell-based
Method: Briefly, all cells were divided into the following two groups: A: blocking group and B: vehicle group. All cells were cultured, grouped, and plated (approximately 2*10^6 cells per well) before use. Cells were treated with [^18F]3 (74 KBq) and incubated at 37°C under a 5% CO2 atmosphere. […] Incubated at 37°C for 1 h, the medium from each well was removed, and the cells were washed twice with 1 mL of PBS. The medium and the PBS from each well were combined and counted in a Gamma counter (PerkinElmer Wizard 2470) for radioactivity counts. The cells were then handled with 1 mL of 1 M NaOH, and the lysates were also counted in the Wizard 2470 gamma counter. The uptake ratios for each group were then calculated with this equation: %Dose = […](medium counts + PBS counts + cell lysate counts).

[2] = Biodistribution in normal Kunming mice; format: in vivo; settings: for Biodistribution, Intestine, single mice: individual animals; for Biodistribution, Blood / Biodistribution, Bone / Biodistribution, Brain / Biodistribution, Heart / Biodistribution, Intestine / Biodistribution, Kidney / Biodistribution, Lungs / Biodistribution, Muscle / Biodistribution, Spleen / Biodistribution, Stomach / Biodistribution, Liver: mean (SD), n = 5
Method: Normal Kunming mice (4 weeks, 20–25 g) were injected intravenously with about 740 KBq of [^18F]3 in 100 µL of PBS saline solution via the tail vein. All subjects were grouped by time points (n = 5). At designated time points, all subjects were sacrificed, and the organs and tissues were harvested, weighted, and counted in a PerkinElmer Wizard 2470 gamma counter. All the counts obtained from the gamma counter were decay-corrected and used to calculate the tissue biodistribution data, which is presented as the percentage of injected dose per gram of organ (%ID/g).

U87MG xenograft tumors = test: Micro-PET/CT imaging, U87MG xenograft tumors; format: in vivo, BALB/c nude mice; settings: U87MG xenografted tumors, within 90 min
Method: BALB/c nude mice used in this study were obtained from the Animal Center of Sichuan University. Tumor-bearing mouse models were established by the subcutaneous injection of 100 µL of PBS suspension containing approximately 1*10^6 tumor cells to the body side of the subjects. The tumor volume was monitored every day, and the tumor-bearing mice were ready for imaging once the tumor volume reached 0.5 mm^3 (tumor volume can be calculated by this equation: Volume = 0.5 * long tail * short tail *short tail). Micro-PET/CT imaging studies were performed on the IRIS Micro-PET/CT system (Inviscan SAS, France). Tumor-bearing mice were injected with approximately 11.2–14.8 MBq of [^18F]3 (200 µL) via the tail vein under anaesthetization by isoflurane. Static PET images were obtained at designated time points and were reconstructed with a 3D-OSEM algorithm using a Monte Carlo-based accurate detector model. Then, 170 sec-CT acquisition was conducted with 50 kV, 1 mA X-ray output for attenuation correction and anatomical orientation. […]
BALB/c nude mice used in this study were obtained from the Animal Center of Sichuan university. […] The tumor volume was monitored every day and the tumor-bearing mice were ready for imaging once the tumor volume reach 0.5 mm^3 (tumor volume can be calculated by this equation: Volume = 0.5 * long tail * short tail *short tail). […]

Biodistribution, Blood ([2]; 5 min post-injection): 12.96 ± 2.03 %ID/g
Biodistribution, Bone ([2]; 5 min post-injection): 1.86 ± 0.54 %ID/g
Biodistribution, Brain ([2]; 5 min post-injection): 0.80 ± 0.29 %ID/g
Biodistribution, Heart ([2]; 5 min post-injection): 11.00 ± 1.64 %ID/g
Biodistribution, Intestine ([2]; 5 min post-injection): 13.99 ± 4.60 %ID/g
Biodistribution, Kidney ([2]; 5 min post-injection): 22.59 ± 5.74 %ID/g
Biodistribution, Lungs ([2]; 5 min post-injection): 11.36 ± 1.89 %ID/g
Biodistribution, Muscle ([2]; 5 min post-injection): 8.02 ± 1.34 %ID/g
Biodistribution, Spleen ([2]; 5 min post-injection): 8.71 ± 1.50 %ID/g
Biodistribution, Stomach ([2]; 5 min post-injection): 7.82 ± 0.86 %ID/g
Biodistribution, Blood ([2]; 15 min post-injection): 6.90 ± 1.13 %ID/g
Biodistribution, Bone ([2]; 15 min post-injection): 1.59 ± 0.51 %ID/g
Biodistribution, Brain ([2]; 15 min post-injection): 0.61 ± 0.25 %ID/g
Biodistribution, Heart ([2]; 15 min post-injection): 5.71 ± 1.12 %ID/g
Biodistribution, Intestine ([2]; 15 min post-injection): 20.10 ± 6.14 %ID/g
Biodistribution, Kidney ([2]; 15 min post-injection): 12.72 ± 3.88 %ID/g
Biodistribution, Liver ([2]; 15 min post-injection): 27.82 ± 6.35 %ID/g
Biodistribution, Lungs ([2]; 15 min post-injection): 6.84 ± 1.43 %ID/g
Biodistribution, Muscle ([2]; 15 min post-injection): 5.32 ± 1.02 %ID/g
Biodistribution, Spleen ([2]; 15 min post-injection): 4.56 ± 1.09 %ID/g
Biodistribution, Stomach ([2]; 15 min post-injection): 6.98 ± 1.36 %ID/g
Biodistribution, Blood ([2]; 30 min post-injection): 4.35 ± 0.66 %ID/g
Biodistribution, Bone ([2]; 30 min post-injection): 1.80 ± 0.60 %ID/g
Biodistribution, Brain ([2]; 30 min post-injection): 0.35 ± 0.10 %ID/g
Biodistribution, Heart ([2]; 30 min post-injection): 3.53 ± 0.33 %ID/g
Biodistribution, Intestine ([2]; 30 min post-injection): 33.51 ± 12.05 %ID/g
Biodistribution, Kidney ([2]; 30 min post-injection): 8.48 ± 1.34 %ID/g
Biodistribution, Liver ([2]; 30 min post-injection): 15.34 ± 2.67 %ID/g
Biodistribution, Lungs ([2]; 30 min post-injection): 5.15 ± 1.59 %ID/g
Biodistribution, Spleen ([2]; 30 min post-injection): 2.95 ± 0.49 %ID/g
Biodistribution, Stomach ([2]; 30 min post-injection): 5.50 ± 1.26 %ID/g
Biodistribution, Blood ([2]; 60 min post-injection): 2.61 ± 0.18 %ID/g
Biodistribution, Bone ([2]; 60 min post-injection): 1.91 ± 0.33 %ID/g
Biodistribution, Brain ([2]; 60 min post-injection): 0.20 ± 0.04 %ID/g
Biodistribution, Heart ([2]; 60 min post-injection): 1.91 ± 0.24 %ID/g
Biodistribution, Intestine ([2]; 60 min post-injection): 19.33 ± 7.66 %ID/g
Biodistribution, Kidney ([2]; 60 min post-injection): 5.07 ± 0.81 %ID/g
Biodistribution, Liver ([2]; 60 min post-injection): 9.03 ± 3.62 %ID/g
Biodistribution, Lungs ([2]; 60 min post-injection): 2.35 ± 1.07 %ID/g
Biodistribution, Muscle ([2]; 60 min post-injection): 2.60 ± 1.20 %ID/g
Biodistribution, Spleen ([2]; 60 min post-injection): 1.46 ± 0.24 %ID/g
Biodistribution, Stomach ([2]; 60 min post-injection): 2.98 ± 1.22 %ID/g
Biodistribution, Blood ([2]; 120 min post-injection): 1.29 ± 0.28 %ID/g
Biodistribution, Bone ([2]; 120 min post-injection): 1.65 ± 0.81 %ID/g
Biodistribution, Brain ([2]; 120 min post-injection): 0.08 ± 0.02 %ID/g
Biodistribution, Heart ([2]; 120 min post-injection): 0.93 ± 0.20 %ID/g
Biodistribution, Intestine ([2]; 120 min post-injection): 4.75 ± 2.73 %ID/g
Biodistribution, Kidney ([2]; 120 min post-injection): 2.27 ± 0.93 %ID/g
Biodistribution, Liver ([2]; 120 min post-injection): 5.39 ± 3.36 %ID/g
Biodistribution, Lungs ([2]; 120 min post-injection): 1.87 ± 0.49 %ID/g
Biodistribution, Muscle ([2]; 120 min post-injection): 1.51 ± 0.48 %ID/g
Biodistribution, Spleen ([2]; 120 min post-injection): 0.85 ± 0.13 %ID/g
Biodistribution, Stomach ([2]; 120 min post-injection): 1.63 ± 0.51 %ID/g
Biodistribution, Blood ([2]; 240 min post-injection): 0.75 ± 0.19 %ID/g
Biodistribution, Bone ([2]; 240 min post-injection): 1.33 ± 0.30 %ID/g
Biodistribution, Brain ([2]; 240 min post-injection): 0.04 ± 0.02 %ID/g
Biodistribution, Heart ([2]; 240 min post-injection): 0.39 ± 0.11 %ID/g
Biodistribution, Intestine ([2]; 240 min post-injection): 4.84 ± 2.23 %ID/g
Biodistribution, Kidney ([2]; 240 min post-injection): 0.82 ± 0.23 %ID/g
Biodistribution, Liver ([2]; 240 min post-injection): 2.47 ± 1.47 %ID/g
Biodistribution, Lungs ([2]; 240 min post-injection): 0.69 ± 0.19 %ID/g
Biodistribution, Muscle ([2]; 240 min post-injection): 0.76 ± 0.23 %ID/g
Biodistribution, Spleen ([2]; 240 min post-injection): 0.38 ± 0.13 %ID/g
Biodistribution, Stomach ([2]; 240 min post-injection): 1.64 ± 0.69 %ID/g
Activity in the bone ([2]; all time points): lower than 2 %ID/g
Radioactivity in the brain ([2]; all time points): lower than 1 %ID/g
Compound: N#C[C@@H]1CC(F)(F)CN1C(=O)CNC(=O)c1ccnc2ccc([18F])cc12 [[^18F]3]
Cellular uptake ratio, blocking group ([1]; 1 h, pre-treatment with compound 3, 10 µM): 0.56% ± 0.03%
Cellular uptake ratio ([1]; 1 h incubation, vehicle group): 1.07% ± 0.01%
Biodistribution, Intestine, single mice ([2]; 5 min post-injection (time inferred from the means)): 10.34 %ID/g and 11.05 %ID/g and 10.3 %ID/g and 22.06 %ID/g and 16.22 %ID/g
Biodistribution, Intestine, single mice ([2]; 15 min post-injection (time inferred from the means)): 27.17 %ID/g and 17.59 %ID/g and 22.86 %ID/g and 23.43 %ID/g
Biodistribution, Intestine, single mice ([2]; 30 min post-injection (time inferred from the means)): 31.76 %ID/g and 22.3 %ID/g and 32.3 %ID/g and 24.86 %ID/g and 56.33 %ID/g
Biodistribution, Intestine, single mice ([2]; 60 min post-injection (time inferred from the means)): 31 %ID/g and 24.55 %ID/g and 17.85 %ID/g and 13.74 %ID/g and 9.5 %ID/g
Biodistribution, Intestine, single mice ([2]; 90 min post-injection (time inferred from the means)): 6.25 %ID/g and 12.96 %ID/g and 10.39 %ID/g and 11.77 %ID/g and 4.91 %ID/g
Biodistribution, Intestine, single mice ([2]; 120 min post-injection (time inferred from the means)): 6.06 %ID/g and 1.76 %ID/g and 4.52 %ID/g and 2.19 %ID/g and 9.23 %ID/g
Biodistribution, Intestine, single mice ([2]; 240 min post-injection (time inferred from the means)): 7.72 %ID/g and 2.48 %ID/g and 5.26 %ID/g and 2.09 %ID/g and 6.66 %ID/g
Tumor SUV (U87MG xenograft tumors): greater than 0.22
